Eight compounds from ChEMBL document CHEMBL1155637, “Oleanane triterpenes from Junellia tridens” (2000) can be followed below.

As a reminder, the MIC is the lowest concentration found to suppress growth. Read a high MIC as a need for much substance.

≈ marks a conversion by molar mass, not a printed value.

The assay relates to Mycobacterium tuberculosis. Description: Antitubercular activity against Mycobacterium tuberculosis H37Rv ATCC 27294 by BACTEC 460 radiorespirometric assay. Format: functional.
Take `CC(C)[C@@H]1CC[C@]2(C)[C@H](CC=C3[C@@H]4CC(C)(C)CC[C@]4(C(=O)O)CC[C@]32C)[C@@]1(C)CCC(=O)O`: the MIC was found to be 128 µg/mL (≈ 271 µM).
On to `CC1(C)CC[C@]2(C(=O)O)CC[C@]3(C)C(=CC[C@@H]4[C@@]5(C)CC[C@@H](O)C(C)(C)[C@@H]5CC[C@]43C)[C@@H]2C1`, for which the MIC worked out at 16 µg/mL (≈ 35 µM).
Compound `CC1(C)CC[C@]2(C(=O)O)CC[C@]3(C)C(=C2C1)C=C[C@@H]1[C@@]2(C)CC[C@@H](O)C(C)(C)[C@@H]2CC[C@]13C` had an MIC of 64 µg/mL (≈ 141 µM).
In the case of `CC1(C)CC[C@@]23CC[C@]4(C)[C@@](C=C[C@@H]5[C@@]6(C)CC[C@@H](O)C(C)(C)[C@@H]6CC[C@]54C)(OC2=O)[C@@H]3C1`, 64 µg/mL (≈ 141 µM) was the least that counted as inhibitory (MIC).
Take `C=C(C)[C@@H]1CC[C@]2(C(=O)O)CC[C@]3(C)[C@H](CC[C@@H]4[C@@]5(C)CC[C@@H](O)C(C)(C)[C@@H]5CC[C@]43C)[C@@H]12` [EPIBETULINIC ACID]: the MIC turned out to be 50 µg/mL (≈ 109 µM).
With `CC1(C)CC[C@]2(C(=O)O)CC[C@]3(C)C(=CC[C@@H]4[C@@]5(C)CC[C@H](O)C(C)(C)[C@@H]5CC[C@]43C)[C@@H]2C1` [OLEANOLIC_ACID] the figure was 50 µg/mL (≈ 109 µM).
The compound `CC1(C)CC[C@]2(C(=O)O)CC[C@]3(C)C(=CC[C@@H]4[C@@]5(C)CCC(=O)C(C)(C)[C@@H]5CC[C@]43C)[C@@H]2C1` [OLEANONIC ACID] had an MIC of 16 µg/mL (≈ 35.2 µM).
The compound `CO[C@H]1/C=C/O[C@@]2(C)Oc3c(C)c(O)c4c(O)c(c(/C=N/N5CCN(C)CC5)c(O)c4c3C2=O)NC(=O)/C(C)=C\C=C\[C@H](C)[C@H](O)[C@@H](C)[C@@H](O)[C@@H](C)[C@H](OC(C)=O)[C@@H]1C` [RIFAMPIN] showed an MIC of 0.16 µg/mL (≈ 0.194 µM).
